Several values for one entry are separate records, joined by “and”; a condition that tells them apart may be missing. Equal entries are not always repeated. Where two headings read alike, the source gives them in different places.
Columns and labels:
Type in all cases: cell-based, Plasmodium falciparum
P. falciparum Dd2-2D4 = assay: P. falciparum asexual blood stage (ABS) growth assay, SYBR Green, 72 h, wild-type parasites; settings: for ABS growth dose-response, normalized signal (Replicates 1-3) / parasite growth, replicate wells (Fig 1b): Dd2-2D4
[1] = tested on: halofuginone-induced P. falciparum (elevated proline homeostasis); assay: P. falciparum ABS growth assay, SYBR Green, 72 h, halofuginone-induced parasites; settings: for parasite growth, replicate wells (Fig 1b): Halofuginone-Induced
Method in brief: (§1)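 SYBR Green 1 fluorescence after 72 h quantified growth of erythrocytic-stage Dd2 lines seeded at 1% parasitemia and 1% hematocrit. Compounds were tested in triplicate dose-response format in RPMI with 0.5% Albumax, referenced to 10 μM dihydroartemisinin and untreated wells.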

[2] = tested on: HFGR-I P. falciparum (elevated proline homeostasis and PfcProRS^L482H); assay: P. falciparum ABS growth assay, SYBR Green, 72 h, HFGR-I parasites; settings: for parasite growth, replicate wells (Fig 1b): HFGR-I
Method in brief: as §1

[3] = tested on: P. falciparum Dd2-2D4 NCP26 selections S1-3; assay: ABS growth assay on bulk populations and clones from NCP26 resistance selections S1-3; settings: for EC50: Plasmodium falciparum
Experimental: In short, P. falciparum erythrocytic-stage parasites at 1% parasitemia and 1% hematocrit in RPMI + 0.5% Albumax were seeded at 40 μL/well in 384-well plates with test compounds in triplicate, dose-response format with 10 μM dihydroartemisinin as a kill-control and blank (no compound) wells as a growth-control. […] After 72 h, growth was quantified by measuring fluorescence (Molecular Devices SpectraMax iD5) following SYBR Green 1 staining. Data were analyzed in Excel and plotted in PRISM (V. 8.4.3–9.1.0, GraphPad).
This cycle was repeated for ~50 generations (~100 days), corresponding to 5–6 cycles of drug pressure.
Clonal parasites were isolated from each selection flask by limiting dilution of ring stage parasites in 96-well plates to an average of 0.8 and 0.2 parasites per well.

[4] = Log[inhibitor] (M) -6.806, listed as NCP26 (3)
[5] = Log[inhibitor] (M) -7.107, listed as NCP26 (3)
[6] = Log[inhibitor] (M) -7.408, listed as NCP26 (3)
[7] = Log[inhibitor] (M) -7.709, listed as NCP26 (3)
[8] = Log[inhibitor] (M) -5.602, listed as NCP26 (3)
[9] = Log[inhibitor] (M) -8.010, listed as NCP26 (3)

SMILES: O=C(NC1Cc2ccccc2C1)c1nccnc1NC(=O)N1CCCCC1 [NCP26]
- ABS growth dose-response, normalized signal (Replicates 1-3) (P. falciparum Dd2-2D4; Log[inhibitor] (M) -4.699): 0
- parasite growth, replicate wells (Fig 1b) (P. falciparum Dd2-2D4; Log[inhibitor] (M) -4.699): 0.00E+00
- ABS growth dose-response, normalized signal (Replicates 1-3) (P. falciparum Dd2-2D4; Log[inhibitor] (M) -5.000): 0
- parasite growth, replicate wells (Fig 1b) (P. falciparum Dd2-2D4; Log[inhibitor] (M) -5.000): 0.00E+00
- ABS growth dose-response, normalized signal (Replicates 1-3) (P. falciparum Dd2-2D4; Log[inhibitor] (M) -5.301): 0
- parasite growth, replicate wells (Fig 1b) (P. falciparum Dd2-2D4; Log[inhibitor] (M) -5.301): 0.00E+00
- ABS growth dose-response, normalized signal (Replicates 1-3) (P. falciparum Dd2-2D4; Log[inhibitor] (M) -5.602): 0
- parasite growth, replicate wells (Fig 1b) (P. falciparum Dd2-2D4; Log[inhibitor] (M) -5.602): 0.00E+00
- ABS growth dose-response, normalized signal (Replicates 1-3) (P. falciparum Dd2-2D4; Log[inhibitor] (M) -5.903): 0
- parasite growth, replicate wells (Fig 1b) (P. falciparum Dd2-2D4; Log[inhibitor] (M) -5.903): 0.00E+00
- ABS growth dose-response, normalized signal (Replicates 1-3) (P. falciparum Dd2-2D4; Log[inhibitor] (M) -6.204): 0
- parasite growth, replicate wells (Fig 1b) (P. falciparum Dd2-2D4; Log[inhibitor] (M) -6.204): 0.00E+00
- ABS growth dose-response, normalized signal (Replicates 1-3) (P. falciparum Dd2-2D4; Log[inhibitor] (M) -6.505): 0
- parasite growth, replicate wells (Fig 1b) (P. falciparum Dd2-2D4; Log[inhibitor] (M) -6.505): 0.00E+00
- parasite growth, replicate wells (Fig 1b) (P. falciparum Dd2-2D4; [4]): 6.00E+00 (2×) and 5.00E+00
- parasite growth, replicate wells (Fig 1b) (P. falciparum Dd2-2D4; [5]): 3.30E+01 and 2.80E+01 and 3.00E+01
- parasite growth, replicate wells (Fig 1b) (P. falciparum Dd2-2D4; [6]): 9.50E+01 and 9.40E+01 and 9.90E+01
- parasite growth, replicate wells (Fig 1b) (P. falciparum Dd2-2D4; [7]): 1.09E+02 and 1.04E+02 and 1.02E+02
- ABS growth dose-response, normalized signal (Replicates 1-3) (P. falciparum Dd2-2D4; Log[inhibitor] (M) -8.010): 101
- parasite growth, replicate wells (Fig 1b) (P. falciparum Dd2-2D4; Log[inhibitor] (M) -8.010): 1.01E+02
- EC50 (P. falciparum Dd2-2D4; Plasmodium falciparum, DD2, SI Fig 16b, values on -log scale, read-out: ABS - Dd2-2D4 (converted)): 0.0675 µM
- parasite growth, replicate wells (Fig 1b) ([1]; Log[inhibitor] (M) -4.699, listed as NCP26 (3)): 0.00E+00 and -1.00E+00 and -2.00E+00
- parasite growth, replicate wells (Fig 1b) ([1]; Log[inhibitor] (M) -5.000, listed as NCP26 (3)): 1.00E+00 (2×) and -1.00E+00
- parasite growth, replicate wells (Fig 1b) ([1]; Log[inhibitor] (M) -5.301, listed as NCP26 (3)): -1.00E+00 (2×) and 7.00E+00
- parasite growth, replicate wells (Fig 1b) [1, 8]: 1.00E+00 and 5.00E+00 and 0.00E+00
- parasite growth, replicate wells (Fig 1b) ([1]; Log[inhibitor] (M) -5.903, listed as NCP26 (3)): 0.00E+00 and -1.00E+00 (2×)
- parasite growth, replicate wells (Fig 1b) ([1]; Log[inhibitor] (M) -6.204): -2.00E+00
- parasite growth, replicate wells (Fig 1b) ([1]; Log[inhibitor] (M) -6.505, listed as NCP26 (3)): 0.00E+00 (2×) and -1.00E+00
- parasite growth, replicate wells (Fig 1b) [1, 4]: 1.80E+01 (2×) and 1.90E+01
- parasite growth, replicate wells (Fig 1b) [1, 5]: 9.50E+01 and 8.90E+01 and 9.10E+01
- parasite growth, replicate wells (Fig 1b) [1, 6]: 1.05E+02 and 1.12E+02 and 1.07E+02
- parasite growth, replicate wells (Fig 1b) [1, 7]: 1.09E+02 and 1.08E+02 and 1.10E+02
- parasite growth, replicate wells (Fig 1b) [1, 9]: 9.90E+01 and 1.01E+02 and 1.04E+02
- dose-response value, Replicates 1-3 (SI Fig 2e) ([1]; Log[inhibitor] (M) -6.204): -2.0
- parasite growth, replicate wells (Fig 1b) ([2]; Log[inhibitor] (M) -4.699): 0.00E+00
- parasite growth, replicate wells (Fig 1b) ([2]; Log[inhibitor] (M) -5.000): 0.00E+00
- parasite growth, replicate wells (Fig 1b) ([2]; Log[inhibitor] (M) -5.301): 0.00E+00
- parasite growth, replicate wells (Fig 1b) [2, 8]: 0.00E+00 and 1.00E+00 (2×)
- parasite growth, replicate wells (Fig 1b) ([2]; Log[inhibitor] (M) -5.903): 0.00E+00
- parasite growth, replicate wells (Fig 1b) ([2]; Log[inhibitor] (M) -6.204): 0.00E+00
- parasite growth, replicate wells (Fig 1b) ([2]; Log[inhibitor] (M) -6.505): 1.00E+00
- parasite growth, replicate wells (Fig 1b) [2, 4]: 7.00E+00 (2×) and 6.00E+00
- parasite growth, replicate wells (Fig 1b) [2, 5]: 3.90E+01 and 3.70E+01 (2×)
- parasite growth, replicate wells (Fig 1b) [2, 6]: 9.90E+01 and 1.07E+02 and 1.00E+02
- parasite growth, replicate wells (Fig 1b) [2, 7]: 1.11E+02 (2×) and 1.00E+02
- parasite growth, replicate wells (Fig 1b) [2, 9]: 1.08E+02 and 1.07E+02 and 1.06E+02
- dose-response value, Replicates 1-3 (SI Fig 2f) ([2]; Log[inhibitor] (M) -4.699): 0
- dose-response value, Replicates 1-3 (SI Fig 2f) ([2]; Log[inhibitor] (M) -5.000): 0
- dose-response value, Replicates 1-3 (SI Fig 2f) ([2]; Log[inhibitor] (M) -5.301): 0
- dose-response value, Replicates 1-3 (SI Fig 2f) ([2]; Log[inhibitor] (M) -5.903): 0
- dose-response value, Replicates 1-3 (SI Fig 2f) ([2]; Log[inhibitor] (M) -6.204): 0
- dose-response value, Replicates 1-3 (SI Fig 2f) ([2]; Log[inhibitor] (M) -6.505): 1
- EC50 ([3]; DD2, cell line S1 - Clone A8, read-out: EC50 [nM] mean): 68.1 nM
- EC50 ([3]; DD2, cell line S1 - bulk population, read-out: EC50 [nM] mean): 102 nM
- EC50 ([3]; DD2, cell line S2 - Clone A3, read-out: EC50 [nM] mean): 1240 nM
- EC50 ([3]; DD2, cell line S2 - Clone B9, read-out: EC50 [nM] mean): 2930 nM
- EC50 ([3]; DD2, cell line S2 - Clone C5, read-out: EC50 [nM] mean): 1580 nM
- EC50 ([3]; DD2, cell line S2 - bulk population, read-out: EC50 [nM] mean): 1340 nM
- EC50 ([3]; DD2, cell line S3 - Clone B3, read-out: EC50 [nM] mean): 2810 nM
- EC50 ([3]; DD2, cell line S3 - Clone B7, read-out: EC50 [nM] mean): 2450 nM
- EC50 ([3]; DD2, cell line S3 - bulk population, read-out: EC50 [nM] mean): 2000 nM
- EC50 ([3]; DD2, read-out: EC50 [nM] mean, cell line S3 - Clone B2): 5110 nM
- parasite growth, dose-response point ([3]; S1 - Clone A8, Log[NCP26] (M) -6.505): 1
- parasite growth, dose-response point ([3]; S1 - Clone A8, Log[NCP26] (M) -6.806): 9
- parasite growth, dose-response point ([3]; S1 - Clone A8, Log[NCP26] (M) -7.107): 33 and 29
- parasite growth, dose-response point ([3]; S1 - Clone A8, Log[NCP26] (M) -7.408): 93 and 97 and 101
- parasite growth, dose-response point ([3]; S2 - Clone A3, Log[NCP26] (M) -6.505): 93 and 92 and 86
- parasite growth, dose-response point ([3]; S2 - Clone A3, Log[NCP26] (M) -6.806): 96 and 98 and 93
- parasite growth, dose-response point ([3]; S2 - Clone A3, Log[NCP26] (M) -7.107): 100 and 98
- parasite growth, dose-response point ([3]; S2 - Clone A3, Log[NCP26] (M) -7.408): 99 and 101 and 100
- parasite growth, dose-response point ([3]; S2 - Clone B9, Log[NCP26] (M) -6.505): 98 and 112 and 97
- parasite growth, dose-response point ([3]; S2 - Clone B9, Log[NCP26] (M) -6.806): 107 and 93 and 96
- parasite growth, dose-response point ([3]; S2 - Clone B9, Log[NCP26] (M) -7.107): 96 and 110 and 113
- parasite growth, dose-response point ([3]; S2 - Clone B9, Log[NCP26] (M) -7.408): 107 and 94 and 102
- parasite growth, dose-response point ([3]; S2 - Clone B9, Log[NCP26] (M) -7.709): 99 and 93 and 94
- parasite growth, dose-response point ([3]; S2 - Clone C5, Log[NCP26] (M) -6.505): 95 and 102
- parasite growth, dose-response point ([3]; S2 - Clone C5, Log[NCP26] (M) -6.806): 98 and 100 and 101
- parasite growth, dose-response point ([3]; S2 - Clone C5, Log[NCP26] (M) -7.107): 101 and 97
- parasite growth, dose-response point ([3]; S2 - Clone C5, Log[NCP26] (M) -7.408): 96 and 101 and 100
- parasite growth, dose-response point ([3]; S2 - Clone C5, Log[NCP26] (M) -7.709): 102 and 105
- parasite growth, dose-response point ([3]; S3 - Clone A6, Log[NCP26] (M) -6.505): 108 and 103 and 90
- parasite growth, dose-response point ([3]; S3 - Clone A6, Log[NCP26] (M) -6.806): 101 and 97
- parasite growth, dose-response point ([3]; S3 - Clone A6, Log[NCP26] (M) -7.107): 95 and 100 and 96
- parasite growth, dose-response point ([3]; S3 - Clone A6, Log[NCP26] (M) -7.408): 112 and 100 and 105
- parasite growth, dose-response point ([3]; S3 - Clone A8, Log[NCP26] (M) -6.505): 94 and 102 and 97
- parasite growth, dose-response point ([3]; S3 - Clone A8, Log[NCP26] (M) -6.806): 101 and 99 and 104

Source: paper PMC9403976, “Elucidating the path to Plasmodium prolyl-tRNA synthetase inhibitors that overcome halofuginone resistance” (Nature Communications, 2022)
